In data set [1] the test system is S. aureus ATCC 25928. Nature of the data set: MIC determination. It is filed as cell-based, Staphylococcus aureus. The following applies: S. aureus ATCC 25928 (sensitive); 18 h. The protocol: (§1) Wild-type Escherichia coli K-12 AG100 strain [argE3 thi-1 rpsL xyl mtl Δ(gal-uvrB) supE44] expressing the AcrAB TolC efflux pump at its basal level and Klebsiella pneumoniae ATCC 49619 Gram-negative strains were studied in the experiments. Sensitive (ATCC 25928) and the methicillin-resistant (MRSA 272123) subspecies of Staphylococcus aureus were used as Gram-positive strains in the assays.
(§2) Minimum inhibitory concentration (MIC) values of selected compounds were determined in 96-well plates based on the Clinical and Laboratory Standard Institute guidelines (CLSI guidelines). The stock solutions of the compounds were dissolved in DMSO using 1.3 μL of Mueller Hinton Broth, and then two-fold serial dilutions were performed. The starting concentration of the compounds was 100 μM. Then 10^‒4 dilution of an overnight bacterial culture in 100 μL of medium was added to each well, except for the medium control wells.

Data set [2] has as its system S. aureus MRSA 272123. Nature of the data set: MIC determination. The following applies: 18 h. The data set is classed as cell-based, Staphylococcus aureus. The protocol:
as §1, §2

Data set [3] concerns A-375 cells. In words: Sulforhodamine B (SRB) cell viability assay. It is filed as cell-based. The note with it: 72 h. The protocol:
(§3) Copper compounds were tested, along with the free ligands and cisplatin as the positive control, for their cytotoxicity on both melanoma (A-375) and lung adenocarcinoma (A-549) cell lines in the concentration range 0.78–50 μM. Following 72 h of incubation, cell viability was measured via sulforhodamine B (SRB) assay (Supplementary Figure S25).
(§4) A-375 cells (ATCC, CRL-3222) were grown in Dulbecco’s Modified Eagle Medium with high glucose (Gibco #11965118) and A-549 (ATCC, CCL-185) cells were grown in Dulbecco’s Modified Eagle Medium F-12 (Gibco #11320033), supplemented with 10% FBS (Gibco, #10500064) and Penicillin-Streptomycin (10,000 U/mL, Gibco, #15140122). Cells were incubated at 37 °C, 5% CO2 incubator and subcultured every 3 days.
(§5) All the tested complexes were dissolved in DMSO (10 mM stock solution), and aliquots were stored at -20 °C, thawed on the experiment day and used only once. For SRB cell viability assay, A-375 and A-549 cells were seeded on 96-well plates (4×10^3 cells/well) and treated with serial dilutions of indicated compounds (with a concentration range of 0-50 μM, 72 h). Trichloroacetic acid (TCA) was added to wells for fixation at a final concentration of 10%, for 1 h at 4 °C. Each well was washed five times with ddH2O, dried, and incubated with 0.4% (w/v) SRB dye (50 µL/well) for 30 min at room temperature. The wells were washed with 1% acetic acid (v/v) five times, and 150 µL of 10 mM Tris solution was added to dissolve the stain. Colorimetric measurements were taken at λ = 564 nm. Viability percentage was calculated as follows: % Cell Viability = [100 × (sample Abs.-blank) / (non-treated control Abs.-blank)].

The test system of data set [4] is A-549 cells. Nature of the data set: Sulforhodamine B (SRB) cell viability assay. The data set is classed as cell-based. The following applies: 72 h. The protocol:
as §3, §4, §5

Data set [5] relates to A-375 cells. Nature of the data set: γH2AX staining for DNA double-strand breaks. It is filed as cell-based. The protocol: Indeed, we examined whether DNA nicks induced by the complexes on pure plasmid DNA would reflect in cell culture as increased DNA break formation. To test this, A-375 cells were stained using γH2AX, which is a common marker for DSBs (Figure 7B). […] For complex 1 the opposite effect was observed and despite its lower ability to induce ROS formation, the DSB were the highest among the group.
(§6) 5 × 10^4 number of A-375 and A-549 cells were seeded on 12-well plates, and the next day cells were treated with either copper complexes (calculated IC70 values) or cisplatin (15 μM). Following 48 h of treatment, cells were trypsinized, centrifuged and resuspended in PBS solution supplemented with 1% fetal bovine serum (FBS) (10^6 cells/mL).
The Muse ɣH2A.X Activation Dual Detection Kit (Luminex, MCH200101) protocols were followed with minor changes. 1 × 10^5 cells were mixed with ice-cold 1X Fixation Buffer at the same volume for 5 min. Cells were centrifuged (600 g, 5 min), and the pellet was suspended with 100 μL of ice-cold 1X Permeabilization Buffer (10 min, on ice), and centrifuged again. The cell pellet was resuspended with 50 μL of antibody mixture of (20X) Anti-phospho-Histone H2A.X (Ser139), Alexa Fluor 555 and (20X) Anti-H2A.X, PECy5 antibodies. Following 30 min of antibody staining, cells were centrifuged and resuspended with 1X Assay Buffer. DNA breaks were analysed with Muse Cell Analyzer (Merck Millipore).

Data set [6] has as its system A-375 cells. In words: Apoptosis by Annexin V/7-AAD and Caspase 3/7 flow cytometry. The data set is classed as cell-based. The note with it: 48 h, Annexin-V and caspase 3/7. The protocol:
To determine the mode of cell death, A-375 cells were incubated with the Cu complexes and cisplatin for 48 h and, induction of apoptosis was evaluated using both Annexin-V staining and activation of caspase 3/7 in response to drug treatment. While Annexin-V staining relies on the loss of plasma membrane asymmetry, caspases 3 and 7 are critical proteases, which are responsible for the cleavage of many cellular proteins. […] Similar results were obtained in A-549 cells (Supplementary Figure S28).
as §6
Annexin V & Dead Cell Kit (Luminex, MCH100105) protocols were followed for Annexin V activation. Briefly, 1 × 10^5 cells were stained with Annexin V and 7-AAD solution in a 1:1 ratio and incubated at room temperature for 20 min. The apoptotic cell population was evaluated with Muse Cell Analyzer (Merck Millipore).
Caspase-3/7 Kit (Luminex, MCH100108) protocols were followed for Caspase 3/7 staining. 2 × 10^5 cells were stained with 5 μL of Caspase 3/7 antibody (1:8 dilution in PBS) and incubated at room temperature for 30 min. Then, the cells were stained with 100 μL of 7-AAD antibody mixture (1:75 dilution with 1 × Assay Buffer) for 5 min. Caspase 3/7 and 7-AAD positivity were assessed with Muse Cell Analyzer (Merck Millipore).
Background: In flow cytometry, cells or beads pass a laser one at a time.

Data set [7] in a line: Thermodynamic solubility at pH 7.4. The data set is classed as physicochemical. The following applies: Cu(II) complexes; pH 7.40; 20 mM HEPES; 25.0°C. The protocol: Thermodynamic solubility (S) was measured for the new ligands, L^7 and L^8, since data for the rest of the series was previously reported (9), and for selected Cu(II) complexes: 1, 5 and 6. Solubility was measured for the saturated solutions in water at pH 7.40 in 20 mM HEPES at 25.0 ± 0.1 °C. The concentration was determined by UV-Vis spectrophotometry using the stock solutions of the compounds with known concentrations dissolved in 100% DMSO, 50% and 25% (v/v) DMSO/buffered aqueous solutions for the calibration.

Data set [8] deals with A-549 cells. Nature of the data set: ROS activation via dihydroethidium staining, flow cytometry. The data set is classed as cell-based.
Description: Since reactive oxygen species appeared to be involved in the nicking activity of the complexes (Supplementary Figure S24), we investigated whether there was an increase in ROS formation in cells upon drug treatment. Dihydroethidium (DHE) is a reduced form of ethidium, after oxidation with superoxide (ROS), it is converted into 2-hydroxy ethidium, which is a chemical that emits red fluorescence and intercalates DNA. […] Similar results were obtained using A-549 cells, but with much milder induction of ROS except for 8, which remained high (Supplementary Figure S26).
as §6
Oxidative stress levels were assessed by Muse Oxidative Stress Kit (Luminex, MCH100111) using the same protocol as previously described (21).

Data set [9] has as its system A-375 cells. In words: Cytotoxicity with ROS scavenger NAC (SRB). The data set is classed as cell-based. The following applies: 10 mM NAC pre-treatment 2 h, co-treatment 72 h. The text has this: (§7) Additionally, to assess whether the ROS induction contributed to the cytotoxicity triggered by these complexes, we used a ROS scavenger, N-acetyl-cysteine (NAC), in combination with 1, 3, 5 or 8. […] Indeed, it is also possible that the cytotoxicity induced by 5 is not by ROS, despite the induction observed in Figure 7A.
(§8) Figure S27- Protective mechanism of NAC against Cu(II) complexes. Addition of NAC can protect cells from the cytotoxic effects of the Cu(II) complexes A-375 (A) and A-549 (B) cells were pre-treated with 10 mM of ROS scavenger N-acetylcysteine (NAC) for 2 h, then co-treated with freshly prepared Cu(II) complexes (1, 3, 5 and 8) for 72 h. Cell viability was measured via SRB assay (2 biological replicates, each done in duplicate). The error bars represent standard error of the mean. Student t-test was used for statistical analysis, *p<0.05, **p<0.01

The test system of data set [10] is A-549 cells. In words: Cytotoxicity with ROS scavenger NAC (SRB). The data set is classed as cell-based. The following applies: 10 mM NAC pre-treatment 2 h, co-treatment 72 h.
Description: as §7, §8

For data set [11], the system named is Klebsiella pneumoniae ATCC 49619. In words: MIC determination. The data set is classed as cell-based. The note with it: K. pneumoniae; 18 h. The protocol: as §1, §2
For data set [12], the system named is Escherichia coli K-12 AG100. In words: MIC determination. It is filed as cell-based. The following applies: E. coli; 18 h. The protocol:
as §1, §2

Bounds are passed on as bounds.

The source of these data is PMC10072326, “Promising anticancer agents based on 8-hydroxyquinoline hydrazone copper(II) complexes” (Frontiers in Chemistry, 2023).

With `[Cu+2].[O-]C(=NN=Cc1ccc2cccc([O-])c2n1)c1ccncc1` [Complex 8, [Cu(L^8)]3], the minimum inhibitory concentration (MIC) in data set [1], in [2], in data set [11] and in [12] was over 100 µM throughout. For the same compound, the IC50 (usually the concentration that inhibits the measured activity by half) in data set [3] stood at 2.8 ± 0.4 µM; in data set [4], 5.1 ± 0.2 µM. Besides, the “DSB induction (γH2AX), in words” value in data set [5] is recorded as “highest levels of DSB induction”. Besides, the “induction of apoptosis, in words” value in [6] is “most effective drug among the complexes tested”. For the same compound, the “thermodynamic solubility S 7.4” value in data set [7] was 3.3 ± 0.3 µM. Further, the “ROS induction, in words” value in [8] is “remained high”. Moreover, the “effect of NAC on cytotoxicity” value in [9] and in data set [10] was “significantly reduced” throughout.
